# Legend:
# [1] = test system: bone metastasis; test: Prophylactic treatment for bone metastasis in subject with triple negative breast cancer and increased c-MAF; format: in vivo; conditions: 120 mg SC once monthly for 6 months, then every 3 months for 4 and a half years, with oral calcium and vitamin D
# Procedure: A tumor tissue sample is obtained from a subject diagnosed as having triple negative breast cancer. The sample is sectioned into thin slices of tissue and embedded in paraffin. Each paraffin section is mounted on a slide. The slides are incubated with anti-MAF antibody. For visualization and detection of antibodies bound to MAF, antibodies conjugated with fluorescent dye are used. The slides are visualized by providing excitation beams to the fluorescent dyes. Images of fluorescent signals are taken by fluorescent microscopes. The relative expression level of c-MAF in the tumor sample is obtained by comparing the fluorescent signal in the tumor sample to that of a reference sample. The intensity in the tumor sample is correlated with the intensity in the reference sample, wherein a higher intensity in the tumor sample compared to the reference sample correlates with an increased risk of the subject having primary breast cancer metastasis to the bone. Alternatively, 16q22-24 locus,16q23 locus or c-MAF gene amplification or translocation determined using an in situ hybridization technique or similar
# Based on the prognosis of increased risk of bone metastasis, the subject is administered the anti-RANKL antibody Denosumab as a prophylactic treatment for bone metastasis. 120 mg of Denosumab is administered to the subject subcutaneously (SC) once monthly for 6 months. […]
# [2] = test system: osteoclast differentiation of mouse bone marrow-derived precursor cells; test: Osteoclast differentiation from bone marrow cells with conditioned medium, TRAP technique; format: cell-based; conditions: co-incubation with PTHLH antagonist peptide (7-34), 5 μg/ml (FIG. 11c)
# Procedure: b) Assay of osteoclast differentiation from mouse bone marrow-derived precursor cells using conditioned medium originated from MCF7 parental cells or cells over-expressing any of the c-MAF isoforms (short—short isoform and long—long isoform). The number of osteoclasts is measured by means of the TRAP technique (>3 Multinucleated cells).
# c) Bone marrow cells treated with 50:50 osteoclast differentiation and conditioned media (CM) parental, c-MAF short and Long-expressing parental cells and BoM2 bone metastatic MCF7 cell derivatives or without CM but with human PTHLH antagonist peptide (7-34)(5 μg/ml), The number of osteoclasts is measured by means of the TRAP technique (Ostoclasts are >3 Multinucleated cells, Highlighted by white arrows) and normalized to control.
# Without a direct activity of c-MAF in providing bone metastasis functions to breast cancer cells, c-MAF may instead transcriptionally control the activity of genes promoting homing and bone remodeling capabilities to colonize the bone. PTHLH expression was under the control of c-MAF. An observation confirmed by qPCR analysis (FIG. 11a). Further, patient breast cancer metastasis (GSE14020) growing in the bone retained c-MAF expression compared to metastasis elsewhere (FIG. 11b). Moreover, 77% of metastasis expressing MAF and PTHLH above the average were bone metastasis (FIG. 11b). […]
# [3] = test system: c-MAF expressing MCF7 breast cancer cells; test: Bone metastasis of c-MAF expressing MCF7 cells injected intracardiacally, with or without PTHLH-AN; format: in vivo, mouse; conditions: 6 μg twice a day intraperitoneally in PBS, 47 days, vs PBS control (FIG. 11d,e)
# Procedure: d) Parental, c-MAF short and long-expressing parental cells labeled with the luciferase gene were injected into the left ventricle of mouse and bone colonization was analyzed by in vivo bioluminiscent imaging. The mice injected with c-MAF short and long expressing parental cells were treated or not with PTHLH antagonist peptide (7-34) inoculated intraperitoneally (6 μg/animal) twice a day during the course of the experiment. The plot represents the total photon flux ex vivo at the experiment end point, which reflects the number of metastatic cells per lesion (left panel). Osteolytic bone metastasis lesions are depicted (right panel)
# e) X-RAY (CT-scan) images of representative osteolytic lesions per group. […] TRAP positive osteoclast cells (Black) along bone tumor interface from lesions were counted in at least four different fields from each independent mouse and plotted with SD values. […] The statistical differences between groups are evaluated by means of the two-tailed wilcoxon test. […]
# To test whether PTHLH mediates c-MAF driven bone metastasis in breast cancer cells, we injected c-MAF expressing MCF7 breast cancer cells intracardiacally and evaluated its capacity to establish and grow bone metastasis in the presence or absence of PTHLH-AN during the span of 47 days. […]
Substance,evidence of bone metastasis after 5 years [1],induction of osteoclast differentiation in vitro by conditioned media from cells expressing c-MAF [2],extent of the hind limb osteolytic lesions [3],number of osteoclast (TRAP+ cells) at the metastatic lesion perimeter [3]
"Denosumab: fully human monoclonal antibody which binds to RANKL and prevents its activation, CAS number 615258-40-7",free of any evidence of bone-metastasis,,,
PTHLH-AN: human PTHLH antagonist peptide (7-34Aa),,prevented,dramatic reduction,reduction in the number of osteoclast

# Reference: patent US10866241B2, “Method for the prognosis and treatment of cancer metastasis” (Fundació Institut de Recerca Biomèdica (IRB Barcelona), priority 2012, dated 2020)
